The nature of data set [1]: High Throughput Blood Level Assay - Rat. The data set is classed as in vivo. To be noted: male, Alderley Park (AP), Wistar derived, Alpk..APfSD, plasma, oral cocktail dosing, normalised to a 1 mg/kg dose. An excerpt:
(§1) The level of oral exposure of a compound can be measured by the following assay. This assay gives a semi-quantitative measure of the concentration of the compound achieved in the blood at a number of time points. Data available include Cmax (highest concentration achieved), and the AUC (area under the plasma concentration/time curve) for the compound. This gives a high throughput measure of likelihood of obtaining blood levels for each compound following oral dosing and as the data are normalised for dose, it allows direct comparison of each compound.
A cocktail of 6 compounds is formulated in propylene glycol using a combination of vortex mixing, sonication and high speed shear mixing. This formulation consists of 5 test compounds (1 mg/ml) and a standard (0.5 mg/ml). The resulting formulation is a solution or a stable (≧several hours) suspension.
The formulation is dosed (2 ml/kg) to two male rats (170-250 gm) which have been fasted for ≦16 hours then pre-dosed with water (˜10 ml/kg). The dose for the test compounds is 2 mg/kg and for the standard it is 1 mg/kg. […]
Samples are analysed by LC/MS-MS and the concentration obtained is used to determine the Cmax μg/ml (maximum compound level detected), AUC0-6 hr μg/hr/ml (area under the curve) and tmax hr (time that the maximum compound levels have been measured) for a given compound to give an indication of exposure […]

Data set [2] can be described thus: High Throughput Blood Level Assay - Mice. The data set is classed as in vivo. To be noted: male, Alpk..APfCD-1, plasma, 2 mg/kg; AP mouse, oral cocktail dosing, normalised to 1 mg/kg.
Source text: as §1
The above assay may be run using mice in place of rats, but with the following variations.
For a profile in mice 10 male mice are dosed at the same level as to rats but they are not fasted or predosed with water. Furthermore, samples from mice are all terminal, with 2 mice per time point.
The mice used in the above experiment were AP mice. The AP mouse was originally obtained from a commercial breeder Schoefields in 1956. The stock was rederived by fostering onto a CD-1 Charles Rivers (commercial supplier) outbred mouse and has remained a closed colony ever since. The nomenclature for these animals is Alpk..APfCD-1.

The next data set has as its target T1, CDK2/Cyclin E (Homo sapiens, UniProt P24941).
T1 construct: made in house; host or cells: Sf21 insect cells (baculovirus co-infection, pVL1393); the GST-Rb substrate was made in E. coli BL21 (DE3) pLysS
The experiment in a line: CDK2/Cyclin E in vitro kinase assay (Scintillation Proximity Assay, GST-Rb substrate). To be noted: read-out: CDK2 inhibitory activity IC50. The data set is classed as biochemical. How it is done:
The compounds were tested in an in vitro kinase assay in 96 well format using Scintillation Proximity Assay (SPA—obtained from Amersham) for measuring incorporation of [γ-33-P]-Adenosine Triphosphate into a test substrate (GST-Retinoblastoma protein; GST-Rb). In each well was placed the compound to be tested (diluted in DMSO and water to correct concentrations) and in control wells either roscovitine as an inhibitor control or DMSO as a positive control. […]
The plates were sealed with Topseal-S plate sealers, left for two hours then spun at 2500 rpm, 1124 xg., for 5 minutes. The plates were read on a Topcount for 30 seconds per well. […]
E. coli paste was resuspended in 10 ml/g of NETN buffer (50 mM Tris pH 7.5, 120 mM NaCl, 1 mM EDTA, 0.5% v/v NP-40, 1 mM PMSF, 1 μg/ml leupeptin, 1 ug/ml aprotinin and 1 ug/ml pepstatin) and sonicated for 2×45 seconds per 100 ml homogenate. […] The final product was analysed by Sodium Dodeca Sulfate (SDS) PAGE (Polyacrylamide gel) using 8-16% Tris-Glycine gels (Novex, San Diego, USA).
The open reading frames of CDK2 and Cyclin E were isolated by reverse transcriptase-PCR using HeLa cell and activated T cell mRNA as a template and cloned into the insect expression vector pVL1393 (obtained from Invitrogen 1995 catalogue number: V1392-20). […]

pIC50: −log10 of the molar value.

Consider `Cc1ncc(-c2nc(Nc3ccc(C(=O)NC4CC4)c(F)c3)ncc2F)n1C(C)C` [Example 25], for which, in data set [1], the AUC is 830 nM·h and the Cmax is 0.4 µM. In data set [2], the AUC was 1500 nM·h and the Cmax stood at 0.68 µM.
As to `CNC(=O)c1ccc(Nc2ncc(F)c(-c3cnc(C)n3C(C)C)n2)cc1C` [Example 28], the pIC50 at CDK2/Cyclin E is 8.52.

Usually AUC stands for the area under the concentration-time curve, a measure of exposure. One may read the Cmax as the maximum level reached in the sampled fluid or tissue. Broadly, the pIC50 is −log10 of the IC50, conventionally taken in molar units.

The values are drawn from US20090099160A1, “4-(4-(Imidazol-4-Yl) Pyrimidin-2-Ylamino) Benzamides as CDK Inhibitors” (priority 2004, published 2009).
